According to PMC11001709, “Anti-toxoplasma activity and DNA-binding of copper(II) and zinc(II) coordination compounds with 5-nitroimidazole-based ligands” (Journal of Biological Inorganic Chemistry, 2023):

Each molecule was assayed on mouse fibroblast L929 cells (assay: Cytotoxic activity in healthy host cells). Conditions: not given.
Type: cell-based
Procedure: The IC50 values obtained for [Cu(onz)2Cl2] (210.2 μM) and [Cu(onz)2Br2]

SMILES | IC50
Cc1ncc([N+](=O)[O-])n1CC(O)CCl.Cc1ncc([N+](=O)[O-])n1CC(O)CCl.[Cl-].[Cl-].[Cu+2] (centres unmarked) [[Cu(onz)2Cl2]] | 210 µM
Cc1n(CC(O)CCl)c([N+](=O)[O-])c[n+]1[Cu-2]([Br])([Br])[n+]1cc([N+](=O)[O-])n(CC(O)CCl)c1C (centres unmarked) [[Cu(onz)2Br2]] | 180 µM

What follows are molecules tested on RH tachyzoites of Toxoplasma gondii (assay: Viability of extracellular tachyzoites, Sytox Green exclusion test). Conditions: 1 h, PBS pH 7.4, mean ± standard error of three replicates, read-out: IC50.
Type: cell-based
Procedure: RH tachyzoites of Toxoplasma gondii were extracted in PBS solution at pH 7.4 from intraperitoneal fluid of infected CD1 mice on the third day of infection and centrifuged for ten minutes at 260g. Purified parasites were used within 4 h after their isolation.
The viability of the parasites was determined from staining with Sytox Green® fluorescent dye exclusion test. Purified tachyzoites (1 × 10^6) were incubated for one hour at room temperature with PBS solutions of the coordination compounds or the free ligands at concentrations of 40, 20, 10, 5, and 2.5 µM (0.1% DMSO), in a volume final of 1 mL. After the incubation time, the samples were centrifuged for 10 min at 250g, the medium was removed and 20 µL of Sytox Green® was added after 15 min of incubation for differentiate dead parasites in a Neubauer chamber. The assays were performed in triplicate. The half maximal inhibitory concentration (IC50) was calculated by Boltzmann regression analysis and expressed as mean ± standard error of three replicates. Based on the results the tachyzoites were incubated under the same conditions with the coordination compounds [Cu(onz)2Cl2] and [Cu(onz)2Br2] at their respective IC50 values, Sytox Green® was then added, and they were observed by fluorescence microscopy. Sulfadiazine was used as positive control.
Viability assays were performed against tachyzoites of Toxoplasma gondii. The RH strain was used to evaluate the effect of different concentrations (namely, 2.5, 5, 10, 20 and 40 µM) of the coordination compounds and the free 5-nitroimidazole against the tachyzoites. The evaluation were performed in PBS buffer (pH 7.4) with Sytox Green® exclusion test, which allows differentiating dead from live tachyzoites, since the intact cell membrane of alive ones is not stained.

SMILES | IC50
Cc1ncc([N+](=O)[O-])n1CC(O)CCl.Cc1ncc([N+](=O)[O-])n1CC(O)CCl.[Cl-].[Cl-].[Cu+2] (centres unmarked) [[Cu(onz)2Cl2]] | 8.49 ± 0.64 µM
Cc1ncc([N+](=O)[O-])n1CCCl.Cc1ncc([N+](=O)[O-])n1CCCl.[Br][Zn][Br] [[Zn(cenz)2Br2]] | 40 ± 0.96 µM
Cc1ncc([N+](=O)[O-])n1CCCl.Cc1ncc([N+](=O)[O-])n1CCCl.[Cl][Cu][Cl] [[Cu(cenz)2Cl2]] | 30.55 ± 0.25 µM
Cc1n(CC(O)CCl)c([N+](=O)[O-])c[n+]1[Cu-2]([Br])([Br])[n+]1cc([N+](=O)[O-])n(CC(O)CCl)c1C (centres unmarked) [[Cu(onz)2Br2]] | 2.73 ± 0.34 µM

Same assay, conditions: viability vs concentration, read-out: IC50 (Boltzman Fit, Fig. S6)

SMILES | IC50
Cc1ncc([N+](=O)[O-])n1CC(O)CCl.Cc1ncc([N+](=O)[O-])n1CC(O)CCl.[Cl-].[Cl-].[Cu+2] (centres unmarked) [[Cu(onz)2Cl2]] | 8.49 µM
Cc1ncc([N+](=O)[O-])n1CCCl.Cc1ncc([N+](=O)[O-])n1CCCl.[Br][Zn][Br] [[Zn(cenz)2Br2]] | 40 µM
Cc1ncc([N+](=O)[O-])n1CCCl.Cc1ncc([N+](=O)[O-])n1CCCl.[Cl][Cu][Cl] [[Cu(cenz)2Cl2]] | 30.6 µM
Cc1n(CC(O)CCl)c([N+](=O)[O-])c[n+]1[Cu-2]([Br])([Br])[n+]1cc([N+](=O)[O-])n(CC(O)CCl)c1C (centres unmarked) [[Cu(onz)2Br2]] | 2.73 µM

These molecules were tested on ct-DNA (assay: Competitive displacement of ethidium bromide from DNA (fluorescence)). Conditions: EB 75 µM, [DNA]b = 30 µM, compound 0-50 µM, 1 h.
Type: binding, calf
Procedure: (§1) For the UV–Vis, fluorescence and circular dichroism assays the concentration of ct-DNA was determined on a Varian Cary 100 Scan spectrophotometer from the absorption at 260 nm and the corresponding molar absorptivity of 6600 M^−1 cm^−1 (nucleobase concentration). The stock solutions of the coordination compounds and the free ligands were prepared in cacodylate/NaCl buffer (1 mM cacodylic acid and 20 mM sodium chloride) at pH 7.25. The final samples contained a DMSO concentration of 0.2%.
(§2) Emission intensity of the dyes DNA-intercalator ethidium bromide, EB (λexc = 514 nm) and the minor-groove binder Hoechst 33,258 (λexc = 350 nm) was measured on iHR320 HORIBA JOBIN YVON spectrofluorometer. The samples contained 15 µM (in base pairs) of ct-DNA and 75 µM of EB […] in cacodylate/NaCl buffer. The respective dye was incubated for 30 min with ct-DNA to allow its binding to the biomolecule. Subsequently, increasing amounts of coordination compounds (0–50 µM) were added up to a final volume of 2 mL, and the samples were incubated for 1 h at 37 °C. The fluorescence spectra of all samples were recorded at room temperature. The affinity of the compounds for ct-DNA compared to EB was evaluated through the Stern–Volmer quenching constant Ksv, from Eq. 3:3 I0/I=1+Ksvcompound where I0 and I are the emission intensities in absence and the presence of the compound, respectively.
With the aim to corroborate the binding mode of the coordination compounds with DNA competitive displacement assays were carried out by florescence spectroscopy. The fluorescence of ethidium bromide (EB) increases when it intercalates between DNA base pairs, forming an EB-DNA adduct. Competitive binding assays will lead to a decrease of the fluorescence intensity (λexc = 514 nm; λem = 610 nm) if the interacting molecule is capable of displacing EB from the DNA helix. Solutions containing constant concentrations of DNA (30 µM) and EB (75 µM) were incubated for 30 min. Then the coordination compounds to be tested were added in a concentration in the range of 0–50 µM (corresponding to [complex]/[DNA] ratios between = 0 and 3.3), and fluorescence spectra were recorded after 1 h of incubation.

SMILES | Ethidium bromide Ksv
Cc1ncc([N+](=O)[O-])n1CC(O)CCl.Cc1ncc([N+](=O)[O-])n1CC(O)CCl.[Cl-].[Cl-].[Cu+2] (centres unmarked) [[Cu(onz)2Cl2]] | 26000 M⁻¹
Cc1ncc([N+](=O)[O-])n1CCCl.Cc1ncc([N+](=O)[O-])n1CCCl.[Br][Zn][Br] [[Zn(cenz)2Br2]] | 1100 M⁻¹
Cc1n(CC(O)CCl)c([N+](=O)[O-])c[n+]1[Cu-2]([Br])([Br])[n+]1cc([N+](=O)[O-])n(CC(O)CCl)c1C (centres unmarked) [[Cu(onz)2Br2]] | 43000 M⁻¹
Cc1ncc([N+](=O)[O-])n1CC(O)CCl.Cc1ncc([N+](=O)[O-])n1CC(O)CCl.[Cl][Zn][Cl] (centres unmarked) [[Zn(onz)2Cl2]] | 4500 M⁻¹
Cc1ncc([N+](=O)[O-])n1CCCl.Cc1ncc([N+](=O)[O-])n1CCCl.[Br][Cu][Br] [[Cu(cenz)2Br2]] | 35000 M⁻¹

What follows are molecules tested on ct-DNA (assay: Competitive displacement of Hoechst 33258 from DNA (fluorescence)). Conditions: Hoechst 33258 1.9 µM, [DNA]b = 30 µM, compound 0-50 µM, 1 h.
Type: binding, calf
Procedure: as §1, §2
Competitive binding assays were carried out with Hoechst 33,258. This dye binds to B-DNA, especially those with an AT-rich sequence giving a fluorescent signal at 458 nm when excited at 350 nm. As for to the EB assays, DNA (30 µM) was incubated for 30 min with Hoechst 33,258 (1.9 µM) and increasing amounts of the coordination compounds were subsequently added. In all cases, fluorescence quenching was observed (Fig. 9). As previously, the Ksv constants were determined (Fig. 9c and Table 4). The copper(II) compounds show Ksv values in the […] range (Table 4), indicating a groove binding behavior. For the zinc(II) compounds, the Ksv values are two orders of magnitude lower indicating weaker interactions, must likely of electrostatic nature.

SMILES | Hoechst 33258 Ksv
Cc1ncc([N+](=O)[O-])n1CC(O)CCl.Cc1ncc([N+](=O)[O-])n1CC(O)CCl.[Cl-].[Cl-].[Cu+2] (centres unmarked) [[Cu(onz)2Cl2]] | 1.2e+06 M⁻¹
Cc1ncc([N+](=O)[O-])n1CCCl.Cc1ncc([N+](=O)[O-])n1CCCl.[Br][Zn][Br] [[Zn(cenz)2Br2]] | 120000 M⁻¹
Cc1ncc([N+](=O)[O-])n1CCCl.Cc1ncc([N+](=O)[O-])n1CCCl.[Cl][Cu][Cl] [[Cu(cenz)2Cl2]] | 1.6e+06 M⁻¹
Cc1n(CC(O)CCl)c([N+](=O)[O-])c[n+]1[Cu-2]([Br])([Br])[n+]1cc([N+](=O)[O-])n(CC(O)CCl)c1C (centres unmarked) [[Cu(onz)2Br2]] | 2.5e+06 M⁻¹
Cc1ncc([N+](=O)[O-])n1CC(O)CCl.Cc1ncc([N+](=O)[O-])n1CC(O)CCl.[Cl][Zn][Cl] (centres unmarked) [[Zn(onz)2Cl2]] | 38000 M⁻¹
Cc1ncc([N+](=O)[O-])n1CCCl.Cc1ncc([N+](=O)[O-])n1CCCl.[Br][Cu][Br] [[Cu(cenz)2Br2]] | 2.1e+06 M⁻¹

These molecules were tested on young adult male ICR mice (assay: Acute toxicity (LD50), intraperitoneal). Conditions: single dose.
Type: in vivo, mouse
Procedure: For the acute toxicity assays, young adult male ICR mice with an average weight of 28 g and a variation of no more than ± 3 g were used. The handling of the animals was carried out in accordance with the committee for the care and use of laboratory animals (CICUAL) from the Faculty of Chemistry, UNAM.
A stock solution with a concentration of 25 mg mL^−1 of [Cu(onz)2Cl2] and [Cu(onz)2Br2] was prepared with water for injection. In the case of [Cu(onz)2Br2], 0.1% of DMSO was added. For the pharmacological profile three mice were used for each dose of 1, 10 and 100 mg kg^−1 per compound. For the acute toxicity assays five mice were treated for each dose (10, 50, 75 and 100 mg kg^−1) per compound. […] A detailed clinical observation was made 24 h after administration. The doses were administered intraperitoneally. The data obtained were used to calculate the mean lethal dose using the software Prism 13.0 and SPSS 29.0 [37, 38].
Based on the anti-toxoplasma results the medial lethal dose (LD50) for [Cu(onz)2Cl2] and [Cu(onz)2Br2] were determined intraperitoneally using doses of 10, 50, 75 and 100 mg kg^−1 per compound in young adult male ICR mice.

SMILES | LD50
Cc1ncc([N+](=O)[O-])n1CC(O)CCl.Cc1ncc([N+](=O)[O-])n1CC(O)CCl.[Cl-].[Cl-].[Cu+2] (centres unmarked) [[Cu(onz)2Cl2]] | 49.35 mg/kg
Cc1n(CC(O)CCl)c([N+](=O)[O-])c[n+]1[Cu-2]([Br])([Br])[n+]1cc([N+](=O)[O-])n(CC(O)CCl)c1C (centres unmarked) [[Cu(onz)2Br2]] | 83.24 mg/kg
